Test results: patent US11780901B2, “Analogues of parathyroid hormone (1-34) that function as agonists of the parathyroid hormone receptor-1 and display modified activity profiles” (Wisconsin Alumni Research Foundation, priority 2013, dated 2023)
Residue numbers refer to the chain shown, from its start.

Key:
PTHR2 [1] = target: T1, PTHR2 (Homo sapiens, UniProt P49190); assay: PTHR2 activation, cAMP production (GloSensor) in HEK293 cells; format: cell-based; set-up: expressed in transfected cells; conditions: HEK293
T1 sequence (P49190 25-550): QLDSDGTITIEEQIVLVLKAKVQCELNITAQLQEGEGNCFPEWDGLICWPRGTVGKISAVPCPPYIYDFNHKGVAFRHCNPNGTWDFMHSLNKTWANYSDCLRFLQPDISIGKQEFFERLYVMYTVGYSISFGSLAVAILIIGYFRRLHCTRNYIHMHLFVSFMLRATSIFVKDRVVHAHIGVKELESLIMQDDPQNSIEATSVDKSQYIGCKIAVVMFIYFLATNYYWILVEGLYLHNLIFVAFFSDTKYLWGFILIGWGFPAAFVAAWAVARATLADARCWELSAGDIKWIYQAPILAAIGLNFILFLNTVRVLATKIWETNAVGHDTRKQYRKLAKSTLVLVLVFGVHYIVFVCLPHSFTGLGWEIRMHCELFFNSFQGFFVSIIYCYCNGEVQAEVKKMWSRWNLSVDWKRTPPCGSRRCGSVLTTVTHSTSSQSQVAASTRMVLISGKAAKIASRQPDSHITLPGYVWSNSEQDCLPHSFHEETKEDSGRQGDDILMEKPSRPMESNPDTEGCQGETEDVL
Summary of the method: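 HEK293 cells stably expressing PTHR2; receptor activation read as cAMP production by GloSensor luminescence. Dose-response curves fit with a four-parameter sigmoidal equation; data are mean±s.e.m. of four independent measurements.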

PTHR1-1363Y = target: T2, PTHR1-1363Y (Homo sapiens, UniProt Q03431, I363Y); assay: Activation of PTHR1 mutant PTHR1-1363Y; format: cell-based; conditions: data not shown
T2 construct: expressed in transfected cells
T2 sequence (Q03431 27-593 I363Y): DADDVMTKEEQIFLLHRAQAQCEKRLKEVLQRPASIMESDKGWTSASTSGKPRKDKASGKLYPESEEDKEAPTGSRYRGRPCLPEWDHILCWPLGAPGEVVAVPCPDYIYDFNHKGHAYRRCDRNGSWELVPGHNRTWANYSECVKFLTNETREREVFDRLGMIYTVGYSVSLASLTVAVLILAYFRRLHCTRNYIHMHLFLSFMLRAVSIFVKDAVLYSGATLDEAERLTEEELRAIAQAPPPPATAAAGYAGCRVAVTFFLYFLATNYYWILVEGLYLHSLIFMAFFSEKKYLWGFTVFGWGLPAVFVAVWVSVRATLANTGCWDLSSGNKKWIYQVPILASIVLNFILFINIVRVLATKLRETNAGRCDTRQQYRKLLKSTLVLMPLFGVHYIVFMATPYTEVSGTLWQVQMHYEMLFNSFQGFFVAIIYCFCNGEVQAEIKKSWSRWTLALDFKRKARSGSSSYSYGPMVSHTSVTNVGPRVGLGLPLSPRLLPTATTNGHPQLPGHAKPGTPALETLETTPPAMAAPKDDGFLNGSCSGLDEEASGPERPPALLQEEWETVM
From the text: (§1) Reciprocal point mutations of PTHR1 were investigated to see if they would enhance the signaling activity of PTHR2-selective agonists.

PTHR2 [2] = target: T1, PTHR2; assay: Wash-out assay, duration of PTHR2 activation; format: cell-based; set-up: expressed in transfected cells; host or cells: cells stably expressing PTHR2; conditions: for Normalized ligand-off AUC: after washout
From the text: Duration of activation for PTHR1 and PTHR2. To assess the duration of PTHR1 and PTHR2 activation induced by α/β-peptides 14 and 15, the time course of cAMP production by each receptor was examined after stimulation with an agonist and subsequent washing of the cells to remove unbound peptide (wash-out assay). […] During the initial “ligand-on” phase, cells stably expressing PTHR1 or PTHR2 were stimulated with an agonist concentration corresponding to ˜EC80; the medium contained D-luciferin. […] After the addition of fresh medium containing D-luciferin, the luminescence decay is measured. The area under the “ligand-off” curve (AUC) reflects the duration of signaling, which may be related to residence time of the agonist on the receptor but could have other origins at the molecular level.

PTHR1 [3] = target: T3, PTHR1 (Homo sapiens, UniProt Q03431); assay: PTHR1 activation, cAMP production (GloSensor) in HEK293 cells; format: cell-based; set-up: expressed in transfected cells
T3 sequence (Q03431 27-593): T2 sequence (Q03431 27-593 I363Y) with Y337I

PTHR1-L2891 = target: T4, PTHR1-L2891 (Homo sapiens, UniProt Q03431, L289I); assay: Activation of PTHR1 mutant PTHR1-L2891; format: cell-based; conditions: data not shown
T4 construct: expressed in transfected cells
T4 sequence (Q03431 27-593 L289I): T2 sequence (Q03431 27-593 I363Y) with L263I, Y337I
From the text: as §1

R^0 state of PTHR1 = target: T5, R^0 state of PTHR1 (Homo sapiens, UniProt Q03431); conditions: relative to PTH (1-34); cited from earlier work
T5 construct: expressed in transfected cells; host or cells: COS-7, transient; membranes
T5 sequence (Q03431 27-593): T2 sequence (Q03431 27-593 I363Y) with Y337I

PTHR1 [4] = target: T3, PTHR1; assay: Functional selectivity (Gs activation/cAMP production vs βarr recruitment); format: cell-based; set-up: expressed in transfected cells; host or cells: cells stably expressing PTHR1; conditions: cAMP activation vs βarr1 and βarr2 recruitment, relative to PTH (1-34)
Description: More specifically, the initial studies that yielded the compounds disclosed and claimed herein were conducted to determine whether there is a correlation between βarr recruitment and receptor residence time of a PTHR1 agonist. The initial studies were thus conducted in two steps. First, the functional selectivity (Gs activation as indicated by cAMP production vs. βarr recruitment) of several PTHR1 agonists that display substantial differences in signaling duration were evaluated. Second, novel PTHR1 agonists were designed that have high functional selectivity and evaluated the signaling duration of these biased agonists.
The functional selectivity of BA058 is more significant than that of PTHrP. […] LA-PTH is a long-acting PTH analog. […] The middle panels in FIG. 2 are graphs depicting, from left-to-right: βarr1 and βarr2 recruitment, presented as normalized BRET signals (bioluminescence resonance energy transfer) as a function of the log of the peptide concentration, and cAmp activation presented as normalized RLU signals (relative light units) as a function of the log of the peptide concentration. Red=PTH. Orange=LA=LA−PTH. Blue=BA058. Green=PTHrP. (BRET assays are well known and suitable kits are available commercially. See, for example, Promega's “NanoBRET” kits, catalogs nos. N1821 and N1811; Promega Corporation, Fitchburg, Wis.). The table at the bottom of FIG. 2 presents the pEC50 and Emax values for the […] and βarr2 recruitment and cAMP activation. FIG. 3 presents the data for the bias of the activity—either toward βarr recruitment or cAMP activation.
Incorporating (R*)-β^2Leu/(D)-Leu at the 7th position or (R*)-β^2Nle at the 8th position leads to high Gs-biased agonism. […] (D)-Nle is poorly tolerated at the 8th position for both cAMP signaling and βarr recruitment. The top panels in FIG. 5 are graphs depicting, from left-to-right: βarr1 and βarr2 recruitment, presented as normalized BRET signals as a function of the log of the peptide concentration, and cAmp activation presented as normalized RLU signals as a function of the log of the peptide concentration. […]

| Molecule | Emax (PTHR2 [1]) | agonist activity at PTHR1-1363Y (in words) (PTHR1-1363Y) | Normalized ligand-off AUC (PTHR2 [2]; PTHR2, PTH(1-34)-NH2 = 100, listed as α/β-peptide 1) | Normalized ligand-off AUC (PTHR2 [2]; PTHR2, PTH(1-34)-NH2 = 100, listed as α/β-peptide 15) | Emax (PTHR2 [2]; read-out: Normalized ligand-on Emax) | Emax (PTHR1 [3]; HEK293) | PTHR1 agonist potency decline (PTHR1 [3]; relative to PTH(1-34)-NH2) | Normalized ligand-on Emax (PTHR2 [2]; PTHR2, agonist at ~EC80, PTH(1-34)-NH2 = 100) | PTHR1 agonist activity (in words) (PTHR1 [3]; wild-type PTHR1) | agonist activity at PTHR1-L2891 (in words) (PTHR1-L2891) | R0 affinity (in words) (R^0 state of PTHR1) | signaling bias / functional selectivity (in words) (PTHR1 [4]) |
| --- | --- | --- | --- | --- | --- | --- | --- | --- | --- | --- | --- | --- |
| CC[C@H](C)[C@H](NC(=O)[C@H](CCC(=O)O)NC(=O)[C@H](CO)NC(=O)[C@@H](CNC(=O)[C@@H](N)CO)C(C)C)C(=O)N[C@@H](CCC(N)=O)CC(=O)N[C@@H](CC(C)C)C(=O)N[C@@H](CCSC)C(=O)N[C@@H](Cc1c[nH]cn1)C(=O)N[C@@H](CC(N)=O)C(=O)N[C@@H](CC(C)C)C(=O)NCC(=O)N[C@@H](CCCCN)C(=O)N[C@@H](Cc1c[nH]cn1)C(=O)N[C@@H](CC(C)C)C(=O)N[C@@H](CC(N)=O)C(=O)N[C@@H](CO)C(=O)N[C@@H](CCSC)C(=O)N[C@@H](CCC(=O)O)C(=O)N[C@@H](CCCNC(=N)N)C(=O)N[C@H](C(=O)N[C@@H](CCC(=O)O)C(=O)N[C@@H](Cc1c[nH]c2ccccc12)C(=O)N[C@@H](CC(C)C)C(=O)N[C@@H](CCCNC(=N)N)C(=O)N[C@@H](CCCCN)C(=O)N[C@@H](CCCCN)C(=O)N[C@@H](CC(C)C)C(=O)N[C@@H](CCC(N)=O)C(=O)N[C@@H](CC(=O)O)C(=O)N[C@H](C(=O)N[C@@H](Cc1c[nH]cn1)C(=O)N[C@@H](CC(N)=O)C(=O)N[C@@H](Cc1ccccc1)C(N)=O)C(C)C)C(C)C [Ligand 15] | 104 ± 2% | even less susceptible to activation | 197 ± 16 | more prolonged signaling | 103 ± 1% | 79 ± 6% | ~100 fold |  |  |  |  |  |
| TIP39-NH2: tuberoinfundibular peptide of 39 residues, naturally PTHR2-selective agonist [reference compound] |  | very weak agonist |  |  |  |  |  | 99 ± 1 | does not activate | very weak agonist |  |  |
| LA-PTH: long-acting PTH analog (AVAEIQLMHQRAKWIQDARRRAFLHKLIAEIHTAEI; Long-acting (LA)-PTH, a parathyroid hormone analog) |  |  |  |  |  |  |  |  |  |  | high R0 affinity | biased toward βarr1 and βarr2 recruitment relative to cAMP activation |
